This experiment addresses Spermine oxidase (Homo sapiens, UniProt Q9NWM0). In words: Enzyme Inhibition Assay. The conditions noted are these: pH 8.3; 25 °C. As for the experimental part: SMO activity was assayed at pH 8.3 (0.1 M Tris-HCl buffer) and 25°C using Spm as the substrate in the presence and absence of CHX.

Sequence of Spermine oxidase (Q9NWM0 whole entry): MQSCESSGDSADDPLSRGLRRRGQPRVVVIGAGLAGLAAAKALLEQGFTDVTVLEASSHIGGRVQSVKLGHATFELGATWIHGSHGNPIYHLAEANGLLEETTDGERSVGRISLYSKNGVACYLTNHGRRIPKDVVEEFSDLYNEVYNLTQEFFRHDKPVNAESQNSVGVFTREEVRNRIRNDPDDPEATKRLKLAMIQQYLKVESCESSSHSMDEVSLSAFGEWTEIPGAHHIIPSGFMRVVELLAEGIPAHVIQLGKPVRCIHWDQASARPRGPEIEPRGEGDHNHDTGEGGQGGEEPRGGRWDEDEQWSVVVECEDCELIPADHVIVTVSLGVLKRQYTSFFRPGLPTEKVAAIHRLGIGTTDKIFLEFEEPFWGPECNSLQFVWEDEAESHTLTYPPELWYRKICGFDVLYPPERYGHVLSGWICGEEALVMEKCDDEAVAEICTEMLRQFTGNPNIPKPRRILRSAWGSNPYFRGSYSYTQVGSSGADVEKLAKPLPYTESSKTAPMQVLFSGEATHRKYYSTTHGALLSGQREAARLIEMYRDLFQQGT

On to `[H]/N=C(\N/C(=N/[H])NCCCCCCNC(=N)NC(=N)Nc1ccc(Cl)cc1)Nc1ccc(Cl)cc1` [Chlorhexidine (1)], for which the Ki (usually a dissociation constant, usually derived from enzyme kinetics or from competition with a known ligand) stood at 550 nM.

Source of the values: BindingDB's records for doi:10.3109/14756366.2011.650691 (University Roma Tre, 2013).
